From patent US20250236608A1, “EGFR INHIBITORS” (Blueprint Medicines Corporation, priority 2022, published 2025)

Legend:
[1] = target: EGFR L858R (Homo sapiens (Human), UniProt P00533, L858R); experiment: Biochemical EGFR inhibition assay, EGFR L858R; settings: Caliper mobility shift; 1.0 mM ATP or ATP Km; read-out: Enz EGFR_L858R IC50
[2] = target: EGFR (d746-750) (Homo sapiens (Human), UniProt P00533, DEL746-750); experiment: Biochemical EGFR inhibition assay, EGFR (d746-750); settings: Caliper mobility shift; 1.0 mM ATP or ATP Km; read-out: Enz EGFR_Exon19-del746-750 IC50
EGFR (d746-750), sequence (P00533 other isoform, or with tags, fused parts or gaps del 1-694/del 746-750 limits assumed): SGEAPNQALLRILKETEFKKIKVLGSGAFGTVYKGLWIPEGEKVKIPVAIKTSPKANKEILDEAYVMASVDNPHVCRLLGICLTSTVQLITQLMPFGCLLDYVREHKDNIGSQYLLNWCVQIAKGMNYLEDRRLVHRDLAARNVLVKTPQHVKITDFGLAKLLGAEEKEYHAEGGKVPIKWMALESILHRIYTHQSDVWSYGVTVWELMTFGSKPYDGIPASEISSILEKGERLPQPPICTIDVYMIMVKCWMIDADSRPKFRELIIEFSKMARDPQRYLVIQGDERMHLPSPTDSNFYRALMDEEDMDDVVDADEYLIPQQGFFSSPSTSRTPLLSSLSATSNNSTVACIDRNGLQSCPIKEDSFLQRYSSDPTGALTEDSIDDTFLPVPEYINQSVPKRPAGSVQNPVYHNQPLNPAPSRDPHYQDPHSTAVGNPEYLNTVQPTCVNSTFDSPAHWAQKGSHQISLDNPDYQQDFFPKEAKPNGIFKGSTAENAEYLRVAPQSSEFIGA

[3] = target: pEGFR (Tyr1068) in PC-9 cells (Ex19Del) (Homo sapiens (Human), UniProt P00533, DEL746-750); experiment: PC-9 pEGFR AlphaLISA assay; format: cell-based; settings: 4 hours incubation, p-EGFR (Tyr1068) AlphaLISA, read-out: Ext pEGFR_PC-9 Ex19Del IC50
pEGFR (Tyr1068) in PC-9 cells (Ex19Del), sequence (P00533 other isoform, or with tags, fused parts or gaps del 746-750): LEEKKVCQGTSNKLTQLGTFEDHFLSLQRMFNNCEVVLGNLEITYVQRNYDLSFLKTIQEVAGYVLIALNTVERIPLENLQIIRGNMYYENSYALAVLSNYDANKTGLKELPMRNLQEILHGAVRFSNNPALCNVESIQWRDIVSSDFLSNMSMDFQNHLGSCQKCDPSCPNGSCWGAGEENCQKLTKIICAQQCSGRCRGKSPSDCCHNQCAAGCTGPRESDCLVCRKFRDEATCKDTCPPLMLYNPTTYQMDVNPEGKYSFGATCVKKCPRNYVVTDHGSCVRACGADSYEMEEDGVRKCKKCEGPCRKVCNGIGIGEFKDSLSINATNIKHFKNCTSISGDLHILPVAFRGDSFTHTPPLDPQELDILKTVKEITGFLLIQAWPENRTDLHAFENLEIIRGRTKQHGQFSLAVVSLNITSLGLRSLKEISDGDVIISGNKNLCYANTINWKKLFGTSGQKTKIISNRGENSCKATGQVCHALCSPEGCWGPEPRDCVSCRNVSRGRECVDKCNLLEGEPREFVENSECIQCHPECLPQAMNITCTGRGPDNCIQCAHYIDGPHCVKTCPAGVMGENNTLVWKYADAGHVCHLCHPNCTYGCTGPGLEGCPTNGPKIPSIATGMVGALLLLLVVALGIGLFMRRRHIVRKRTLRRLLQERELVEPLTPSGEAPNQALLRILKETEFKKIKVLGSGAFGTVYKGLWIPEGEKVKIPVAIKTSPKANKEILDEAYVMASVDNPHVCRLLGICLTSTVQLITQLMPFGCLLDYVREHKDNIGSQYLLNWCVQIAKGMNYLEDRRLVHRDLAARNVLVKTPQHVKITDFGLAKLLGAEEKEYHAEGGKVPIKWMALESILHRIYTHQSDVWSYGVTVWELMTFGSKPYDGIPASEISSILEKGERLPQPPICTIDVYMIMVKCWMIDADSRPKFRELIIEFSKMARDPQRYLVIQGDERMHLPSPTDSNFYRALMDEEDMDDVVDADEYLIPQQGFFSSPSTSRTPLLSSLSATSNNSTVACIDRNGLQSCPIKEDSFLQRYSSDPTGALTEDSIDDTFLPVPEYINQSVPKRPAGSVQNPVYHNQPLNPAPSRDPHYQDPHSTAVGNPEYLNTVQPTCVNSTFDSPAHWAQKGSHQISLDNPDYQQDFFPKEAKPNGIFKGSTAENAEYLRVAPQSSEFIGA
Outline: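 Phospho-EGFR (Tyr1068) was quantified by AlphaLISA SureFire Ultra in lysates of PC-9 cells exposed for 4 h to compound (4-fold, 10-point dilutions).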

EGFR L858R, sequence (P00533 25-1210 L858R): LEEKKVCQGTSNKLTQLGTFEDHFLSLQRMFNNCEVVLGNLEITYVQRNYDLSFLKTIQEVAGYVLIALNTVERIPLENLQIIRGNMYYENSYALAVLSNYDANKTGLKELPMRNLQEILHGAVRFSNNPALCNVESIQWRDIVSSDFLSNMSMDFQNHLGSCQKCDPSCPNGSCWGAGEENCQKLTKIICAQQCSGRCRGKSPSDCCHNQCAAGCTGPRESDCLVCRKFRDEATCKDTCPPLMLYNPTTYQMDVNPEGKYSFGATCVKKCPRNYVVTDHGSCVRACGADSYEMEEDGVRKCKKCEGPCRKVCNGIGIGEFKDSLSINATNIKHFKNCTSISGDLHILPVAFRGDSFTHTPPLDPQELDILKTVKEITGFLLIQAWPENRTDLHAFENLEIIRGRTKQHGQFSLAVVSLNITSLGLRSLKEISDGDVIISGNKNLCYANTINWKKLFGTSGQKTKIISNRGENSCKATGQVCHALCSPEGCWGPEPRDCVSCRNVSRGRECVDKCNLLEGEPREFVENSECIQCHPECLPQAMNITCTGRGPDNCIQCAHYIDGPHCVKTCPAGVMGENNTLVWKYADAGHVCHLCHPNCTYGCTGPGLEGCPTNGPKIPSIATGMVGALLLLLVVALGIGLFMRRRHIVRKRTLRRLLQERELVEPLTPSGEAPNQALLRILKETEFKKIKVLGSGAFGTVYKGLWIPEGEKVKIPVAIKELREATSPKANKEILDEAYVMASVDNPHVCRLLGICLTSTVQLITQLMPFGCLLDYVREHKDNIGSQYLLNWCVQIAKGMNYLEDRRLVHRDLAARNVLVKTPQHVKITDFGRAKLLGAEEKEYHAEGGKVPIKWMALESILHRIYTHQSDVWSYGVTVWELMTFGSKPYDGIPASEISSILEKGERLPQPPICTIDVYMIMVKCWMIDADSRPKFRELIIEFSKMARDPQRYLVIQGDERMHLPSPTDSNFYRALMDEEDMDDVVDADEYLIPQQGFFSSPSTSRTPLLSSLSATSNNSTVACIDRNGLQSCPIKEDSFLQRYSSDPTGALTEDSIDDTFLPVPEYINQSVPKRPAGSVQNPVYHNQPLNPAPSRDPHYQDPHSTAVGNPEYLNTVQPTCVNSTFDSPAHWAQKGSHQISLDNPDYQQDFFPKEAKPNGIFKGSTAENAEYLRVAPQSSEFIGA

COc1cc2ncnc(-c3cn(C)nc3-c3ccccc3)c2cc1NC(=O)C1(C)COC1 [Example 345, N-(7-methoxy-4-(1-methyl-3-phenyl-1H-pyrazol-4-yl)quinazolin-6-yl)-3-methyloxetane-3-carboxamide]
IC50 [1]: 4.7 nM
IC50 [2]: 1.9 nM
IC50 [3]: 7.8 nM

COc1cc2ncnc(-c3cn(C)nc3-c3ccccc3)c2nc1NC(=O)[C@]1(C(F)(F)F)CCCN1C (single isomer, unassigned) [Example 430, (S)—N-(7-methoxy-4-(1-methyl-3-phenyl-1H-pyrazol-4-yl)pyrido[3,2-d]pyrimidin-6-yl)-1-methyl-2-(trifluoromethyl) pyrrolidine-2-carboxamide or (R)—N-(7-methoxy-4-(1-methyl-3-phenyl-1H-pyrazol-4-yl)pyrido[3,2-d]pyrimidin-6-yl)-1-methyl-2-(trifluoromethyl) pyrrolidine-2-carboxamide]
IC50 [1]: 19 nM
IC50 [2]: 3.7 nM
IC50 [3]: 16 nM

[2H]C([2H])([2H])Oc1cc2ncnc(-c3cn(C([2H])([2H])[2H])nc3-c3ccccc3)c2nc1NC(=O)C1(C(F)(F)F)CC1 [Example 486, N-(7-(methoxy-d3)-4-(1-(methyl-d3)-3-phenyl-1H-pyrazol-4-yl)pyrido[3,2-d]pyrimidin-6-yl)-1-(trifluoromethyl)cyclopropane-1-carboxamide]
IC50 [1]: 2.2 nM
IC50 [2]: 0.7 nM
IC50 [3]: 1.5 nM

COc1cc2ncnc(-c3cn(CC(F)F)nc3-c3ccccc3)c2cc1OC(=O)N1CCOC[C@@H]1C [Example 76, 4-(1-(2,2-difluoroethyl)-3-phenyl-1H-pyrazol-4-yl)-7-methoxyquinazolin-6-yl (S)-3-methylmorpholine-4-carboxylate]
IC50 [1]: 2.1 nM
IC50 [2]: 0.9 nM
IC50 [3]: 1.4 nM

COc1cc2ncnc(-c3cn(C)nc3-c3ccccc3)c2cc1NC(=O)[C@@H]1C[C@@H]1C [Example 283, (1R,2S)—N-(7-methoxy-4-(1-methyl-3-phenyl-1H-pyrazol-4-yl)quinazolin-6-yl)-2-methylcyclopropane-1-carboxamide]
IC50 [1]: 1.7 nM
IC50 [2]: 0.9 nM
IC50 [3]: 1.1 nM

CCOc1cc2ncnc(-c3cn(C)nc3-c3ccccc3)c2nc1NC(=O)[C@@]12C[C@@H]1CN(C)C2 (single isomer, unassigned) [Example 377, (1S,5S)—N-(7-ethoxy-4-(1-methyl-3-phenyl-1H-pyrazol-4-yl)pyrido[3,2-d]pyrimidin-6-yl)-3-methyl-3-azabicyclo[3.1.0]hexane-1-carboxamide or (1R,5R)—N-(7-ethoxy-4-(1-methyl-3-phenyl-1H-pyrazol-4-yl)pyrido[3,2-d]pyrimidin-6-yl)-3-methyl-3-azabicyclo[3.1.0]hexane-1-carboxamide]
IC50 [1]: 2.2 nM
IC50 [2]: 1.3 nM
IC50 [3]: 2.8 nM

COc1cc2ncnc(-c3cn(C)nc3-c3ccccc3)c2cc1O[C@@H]1CCOC[C@H]1F [Example 18, 6-(((3R,4R)-3-fluorotetrahydro-2H-pyran-4-yl)oxy)-7-methoxy-4-(1-methyl-3-phenyl-1H-pyrazol-4-yl)quinazoline]
IC50 [1]: 3.1 nM
IC50 [2]: 1.8 nM
IC50 [3]: 4.3 nM

COc1cc2ncnc(-c3cn(C)nc3-c3ccccc3)c2nc1O[C@@H](C)c1cccnc1F [Example 47, (S)-6-(1-(2-fluoropyridin-3-yl)ethoxy)-7-methoxy-4-(1-methyl-3-phenyl-1H-pyrazol-4-yl)pyrido[3,2-d]pyrimidine]
IC50 [1]: 2.6 nM
IC50 [2]: 1.4 nM
IC50 [3]: 2.1 nM

COc1cc2ncnc(-c3cn(C)nc3-c3ccccc3)c2cc1O[C@H]1CCOC1 [Example 13, (S)-7-methoxy-4-(1-methyl-3-phenyl-1H-pyrazol-4-yl)-6-((tetrahydrofuran-3-yl)oxy)quinazoline]
IC50 [1]: 4 nM
IC50 [2]: 1.9 nM
IC50 [3]: 6.2 nM

CCn1cc(-c2ncnc3cc(OC)c(NC(=O)[C@]45COC[C@H]4C5)nc23)c(-c2ccccc2)n1 (single isomer, unassigned) [Example 388, (1S,5S)—N-(4-(1-ethyl-3-phenyl-1H-pyrazol-4-yl)-7-methoxypyrido[3,2-d]pyrimidin-6-yl)-3-oxabicyclo[3.1.0]hexane-1-carboxamide or (1R,5R)—N-(4-(1-ethyl-3-phenyl-1H-pyrazol-4-yl)-7-methoxypyrido[3,2-d]pyrimidin-6-yl)-3-oxabicyclo[3.1.0]hexane-1-carboxamide]
IC50 [1]: 4.8 nM
IC50 [2]: 0.5 nM
IC50 [3]: 0.4 nM

COc1cc2ncnc(-c3cn(C)nc3-c3ccccc3)c2cc1NC(=O)c1ccnc(C)c1 [Example 194, N-(7-methoxy-4-(1-methyl-3-phenyl-1H-pyrazol-4-yl)quinazolin-6-yl)-2-methylisonicotinamide]
IC50 [1]: 1.4 nM
IC50 [2]: 0.7 nM
IC50 [3]: 1.7 nM

COc1cc2ncnc(-c3cn(C)nc3-c3ccccc3)c2cc1NC(=O)C1CC(OC)C1 (stereo not drawn) [Example 215, 3-methoxy-N-(7-methoxy-4-(1-methyl-3-phenyl-1H-pyrazol-4-yl)quinazolin-6-yl)cyclobutane-1-carboxamide]
IC50 [1]: 2.7 nM
IC50 [2]: 1.6 nM
IC50 [3]: 1.1 nM

CCC(=O)Nc1cc2c(-c3cn(C)nc3-c3ccccc3)ncnc2cc1OC [Example 322, N-(7-methoxy-4-(1-methyl-3-phenyl-1H-pyrazol-4-yl)quinazolin-6-yl)propionamide]
IC50 [1]: 2.1 nM
IC50 [2]: 1.7 nM
IC50 [3]: 1.6 nM

Cn1cc(-c2ncnc3cc(OC(F)F)c(NC(=O)c4ccc(C5CC5)nc4)nc23)c(-c2ccccc2)n1 [Example 470, 6-cyclopropyl-N-[7-(difluoromethoxy)-4-(1-methyl-3-phenyl-1H-pyrazol-4-yl)pyrido[3,2-d]pyrimidin-6-yl]pyridine-3-carboxamide]
IC50 [1]: 26 nM
IC50 [2]: 4.5 nM
IC50 [3]: 23.8 nM

COc1cc2ncnc(-c3cn(C)nc3-c3ccccc3)c2nc1NC(=O)C1(OC)CC1 [Example 436, 1-methoxy-N-(7-methoxy-4-(1-methyl-3-phenyl-1H-pyrazol-4-yl)pyrido[3,2-d]pyrimidin-6-yl)cyclopropane-1-carboxamide]
IC50 [1]: 8 nM
IC50 [2]: 1 nM
IC50 [3]: 4.6 nM

CCOc1cc2ncnc(-c3cn(C)nc3-c3ccccc3)c2nc1NC(=O)[C@]12C[C@H]1CN(C)C2 (single isomer, unassigned) [Example 378, (1R,5R)—N-(7-ethoxy-4-(1-methyl-3-phenyl-1H-pyrazol-4-yl)pyrido[3,2-d]pyrimidin-6-yl)-3-methyl-3-azabicyclo[3.1.0]hexane-1-carboxamide or (1S,5S)—N-(7-ethoxy-4-(1-methyl-3-phenyl-1H-pyrazol-4-yl)pyrido[3,2-d]pyrimidin-6-yl)-3-methyl-3-azabicyclo[3.1.0]hexane-1-carboxamide]
IC50 [1]: 1.3 nM
IC50 [2]: 0.7 nM
IC50 [3]: 1.2 nM

COc1cc2ncnc(-c3cn(C)nc3-c3ccccc3)c2nc1NC(=O)c1ccccc1F [Example 359, 2-fluoro-N-(7-methoxy-4-(1-methyl-3-phenyl-1H-pyrazol-4-yl)pyrido[3,2-d]pyrimidin-6-yl)benzamide]
IC50 [1]: 1.6 nM
IC50 [2]: 0.7 nM
IC50 [3]: 1.6 nM

COc1cc2ncnc(-c3cn(C)nc3-c3ccccc3)c2cc1NC(=O)c1cnn2c1CCCC2 [Example 226, N-(7-methoxy-4-(1-methyl-3-phenyl-1H-pyrazol-4-yl)quinazolin-6-yl)-4,5,6,7-tetrahydropyrazolo[1,5-a]pyridine-3-carboxamide]
IC50 [1]: 1.6 nM
IC50 [2]: 1 nM
IC50 [3]: 1.4 nM
